{
  "source": "patent US20210253511A1",
  "about": "“COMPOUNDS AND USES FOR THE TREATMENT AND PREVENTION OF DISEASES AND CONDITIONS ASSOCIATE WITH OR AGGREVATED BY IMPARED MITOPHAGY” (Yissum Research Development Company of The Hebrew …, priority 2018, published 2021)",
  "key": {"[1]": {"tested_on": "C. elegans worms in 200 mM paraquat (PQ)", "experiment": "Paraquat survival assay", "format": "in vivo", "details": "200 mM PQ", "procedure": "C. elegans strains were grown at 21° C. on nematode growth media (NGM) agar plates containing diamines or vehicle as a control. The NGM agar plates were prepared as described in L. Livshits, E. Gross, A method for measuring sulfide toxicity in the nematode Caenorhabditis elegans, MethodsX 4 (2017) 250-255. A suspension of 3 g sodium chloride (NaCl), 20 g Bacto agar, and 2.5 g of Bacto peptone in 1 L of double distilled water (DDW) was mixed and autoclaved. Then, the medium was cooled to 55° C. and supplemented with 1 ml of 100 mM CaCl2), 1 ml of 100 mM MgSO4, 25 ml of 1 M potassium phosphate buffer pH 6, and 1 ml of 5 mg/ml cholesterol (the cholesterol was dissolved in ethanol). Diamines or DDW (vehicle) were added to the NGM-agar solution. For RNAi NGM-agar plates, Isopropyl β-D-1-thiogalactopyranoside (IPTG) and ampicillin were added to a final concentration of 1 mM and 100 μg/ml, respectively. The NGM-agar solution was thoroughly vortex mixed and immediately poured into 35 mm petri dish (4 ml per plate). NGM-plates were covered with aluminum foil and dried for 24 h at room temperature (RT). 24 h before the experiment, plates were seeded with 100 μl bacteria (OD600=0.6, OP50 or HT115(DE3)). The seeded plates were covered with aluminum foil and dried for 24 h at RT.\nTo get synchronized C. elegans larvae, the method described in W. B. Wood, The Nematode Caenorhabditis Elegans, Cold Spring Harbor Laboratory 1988, was performed. In brief, hypochlorite/NaOH solution was made by mixing 1 ml of 5% solution of sodium hypochlorite, 800 μl of 2.5 N NaOH and 2.2 ml DDW to final concentrations of 0.5 N NaOH and 1.25% sodium hypochlorite. M9 buffer was made by dissolving 3 g KH2PO4, 6 g Na2HPO4, 5 g NaCl and 1 ml of MgSO4 from 1M stock in 1 litter of DDW. The solution pH was adjusted to 7 and sterilizes by filtration (with a 0.2 µm filter bottle). Gravid hermaphrodites was washed from the NGM plates into a 15 ml tube with M9 buffer and centrifuged for 2 min at 900×g, RT. Liquid was removed until 2 ml worms' suspension was left and added 2 ml of hypochlorite/NaOH solution. A 5 ml syringe with a 21-gauge needle was used to aspirate the worm suspension back and forth several times. After 3 min it was observed the state of the worms using a dissecting stereoscope. At this stage, approximately 50% of worms should appear broken and many of the embryos should float in the solution. The embryos were immediately sedimented using centrifugation (1690×g for 2 min) and carefully removed the supernatant and add 10 ml of M9 buffer. This washing step was repeated three additional times. The supernatant was removed until 2 ml remains and rotated the tube for 16 h at RT. The hatched L larvae were collected by centrifugation (1690×g for 3 min) and put ˜80 L in each seeded NGM assay plate. Grow the L1 (Day 1) for 3 days until they become young adults (Day 3)."}, "[2]": {"tested_on": "C. elegans", "experiment": "Lifespan assay", "format": "in vivo", "details": "4 mM from L1; 21° C.; control 12 days; p=0.0063", "procedure": "FIG. 10. […] Survival curves comparing the lifespans of worm growing on plates containing 0.25 mM and 4 mM 1,8-Diaminooctane (or vehicle as a control). The curves represent data from at least three independent experiments in which the lifespans of at least 145 worms were measured (for each condition). The lifespan medians and p values are indicated in the parentheses near the treatment legend. All lifespan assays were conducted at 21° C. and started with synchronized L1 larvae. Statistical analysis on lifespan survival curves was performed using the log-rank (Mantel-Cox).\nLifespan assays were performed as described in R. Abergel, L. Livshits, M. Shaked, A. K. Chatterjee, E. Gross, Synergism between soluble guanylate cyclase signaling and neuropeptides extends lifespan in the nematode Caenorhabditis elegans, Aging cell 16 (2) (2017) 401-413. In brief, 12 worms per plate were used. […] Worm's survival was scored every two days for live, dead (when it no longer responded to touch), and missing worms. The worms were transferred into fresh plates every 2 days to avoid progeny contamination and every 4 days when worms are in post-fertile stage, until the end of the experiment. Worms were scored as censored when they display internal progeny hatching (worm bagging), rupture, burrow in the agar or crawl off the plates, however, include them in the lifespan data analysis as censored. […]"}, "[3]": {"tested_on": "dct-1(tm376) mutants / dct-1 RNAi worms", "experiment": "Paraquat survival assay in dct-1 deletion mutant or RNAi knockdown worms", "format": "in vivo, C. elegans", "procedure": "FIGS. 9A-9D show the protective activity of 1,8-Diaminooctane is mitophagy-dependent. (FIG. 9A) is a schematic illustration of the mitophagy pathway in C. elegans. Survival curves presenting the effect of dct-1 and pink-1 deletion mutations (FIG. 9B, FIG. 9C) or RNAi knockdowns (FIG. 9D) on worms' viability in 200 mM PQ at indicated time points. Statistical analysis on PQ survival curves were performed using the log-rank (Mantel-Cox) test with Prism 7 software. The plots represent the average of six independent experiments. The minimum number of worms examined for each experimental condition is 133.\nIn the first one, the effect of 1,8-Diaminooctane on the survival of dct-1 and pink-1 mutants in PQ was investigated. DCT-1 is an orthologue of the mammalian NIX/BNIP3L and BNIP3 that act as mitophagy receptors, and PINK-1 is a mitochondrial phosphatase and tensin (PTEN)-induced kinase 1 which has a critical function in mitophagy (see K. Palikaras, E. Lionaki, N. Tavernarakis, Coordination of mitophagy and mitochondrial biogenesis during ageing in C. elegans, Nature 521 (7553) (2015) 525-8; and FIG. 3A). It was hypothesized that if mitophagy is essential for the protective effect of 1,8-Diaminooctane, then dct-1 and pink-1 mutants will become sensitive to PQ following treatment. […] The second experiment that was performed was an RNAi experiment. Here, dct-1 and pink-1 were selectively knocked down using RNAi. The RNAi results recapitulated the one of the mutant experiments ([…]). […] Importantly, the RNAi phenotype was less strong compared to the one observed with the deletion mutants. […] The difference between the results could be due to incomplete suppression of dct-1 and pink-1 in the RNAi treated worms. Together, our results verify that 1,8-Diaminooctane protects against oxidative stress by activating mitophagy."}},
  "note": "Entries after “also recorded” stand apart in the source; their conditions may differ.",
  "data": [
    {"compound": "NCCCCCCCCN", "note": "[1,8-Diaminooctane]", "values": [
      {"measurement": "survival of worms in paraquat", "setting": "[1]; 0.0625, 0.25, 1 and 4 mM (all treatments), L1 to young adult (~48 h), vs distilled-water control, log-rank p<0.0001", "result": "increase the survival of worms significantly; also recorded: significantly increases the resistance to paraquat toxicity in a dose-dependent manner"},
      {"measurement": "survival of worms in paraquat", "setting": "[1]; compound at 4 mM, vs control worms", "result": "best protection"},
      {"measurement": "survival of worms in paraquat", "setting": "[1]; tested at 0.0625 mM and 0.25 mM, not split", "result": "significantly improved the survival of worms in PQ"},
      {"measurement": "median lifespan", "setting": "[2]", "result": 15, "unit": "days"},
      {"measurement": "survival in PQ of treated worms, RNAi against dct-1", "setting": "[3]; compared to control worms that did not get the treatment, p<0.0001", "result": "significantly higher than control worms"},
      {"measurement": "resistance to PQ after treatment, dct-1(tm376) mutants", "setting": "[3]; compared to treated wild-type worms, 200 mM PQ, p<0.0001", "result": "significantly less resistant to PQ"},
      {"measurement": "protective effect in PQ, RNAi against dct-1", "setting": "[3]; compared to worms treated with mock RNAi (empty vector)", "result": "significantly lesser"}
    ]}
  ]
}
